Experiments:
Format in all cases: biochemical
HAB1 = target: T1, HAB1 (Arabidopsis thaliana, UniProt O49686+Q9CAJ0); experiment: PP2C phosphatase activity assay, HAB1; conditions: 200 nM PP2C; SnRK2.6 phosphopeptide substrate; None = 100
T1 construct: HAB1 (residues 172-511) were prepared as recombinant proteins in E. coli; H6GST or H6Sumo; made in house; host or cells: E. coli
T1 sequence (Q9CAJ0 172-511 limits assumed): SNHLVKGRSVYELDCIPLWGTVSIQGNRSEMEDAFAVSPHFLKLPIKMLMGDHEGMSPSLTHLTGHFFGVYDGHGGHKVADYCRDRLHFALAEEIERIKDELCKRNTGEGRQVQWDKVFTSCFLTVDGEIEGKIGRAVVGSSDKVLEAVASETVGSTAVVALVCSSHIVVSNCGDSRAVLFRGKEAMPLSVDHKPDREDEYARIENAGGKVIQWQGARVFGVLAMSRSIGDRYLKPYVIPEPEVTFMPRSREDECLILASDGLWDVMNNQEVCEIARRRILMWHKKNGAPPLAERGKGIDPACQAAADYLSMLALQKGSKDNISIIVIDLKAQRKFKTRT
T1 sequence (O49686 1-191): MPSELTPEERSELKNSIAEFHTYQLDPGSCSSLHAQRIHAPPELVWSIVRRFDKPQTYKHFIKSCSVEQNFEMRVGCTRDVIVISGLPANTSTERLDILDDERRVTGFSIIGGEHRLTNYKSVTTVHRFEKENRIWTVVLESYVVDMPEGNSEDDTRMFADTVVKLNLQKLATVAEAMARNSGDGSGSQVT
Description: (§1) Mutant proteins were expressed as H6GST-fusion proteins and purified by glutathione sepharose chromatography. Protein-protein interactions were determined by luminescence proximity AlphaScreen assay. Biotinylated PP2C proteins for the luminescence proximity assay were generated by in vivo biotinylation of avitag-PP2C fusion proteins. PP2C phosphatase activity was measured by phosphate release from a SnRK2.6 phosphoprotein.
(§2) PP2Cs and PYR/PYL proteins were pre-incubated at the indicated concentrations in 50 mM imidazole, pH 7.2, 5 mM MgCl2, 0.1% β-mercaptoethanol and 0.5 mg/ml BSA for 30 min at room temperature. Reactions were started by addition of 100 μM of a phosphopeptide corresponding to amino acids 170-180 of SnRK2.6 (HSQPK^pSTVGTP). This peptide is phosphorylated at a single residue corresponding to Ser175 in SnRK2.6, whose phosphorylation is required for SnRK2.6 kinase activity^32. Phosphate release from ^pS175 from the phosphopeptide was determined by colorimetric assay (BioVision).

ABI2 = target: T2, ABI2 (Arabidopsis thaliana, UniProt O04719+O49686); experiment: PP2C phosphatase activity assay, ABI2; conditions: 200 nM PP2C; SnRK2.6 phosphopeptide substrate; None = 100
T2 construct: ABI1 (residues 117-434) and ABI2 (residues 101-423) were expressed as H6Sumo fusion proteins; H6Sumo (N); made in house; host or cells: E. coli BL21
T2 sequence (O04719 101-423 limits assumed): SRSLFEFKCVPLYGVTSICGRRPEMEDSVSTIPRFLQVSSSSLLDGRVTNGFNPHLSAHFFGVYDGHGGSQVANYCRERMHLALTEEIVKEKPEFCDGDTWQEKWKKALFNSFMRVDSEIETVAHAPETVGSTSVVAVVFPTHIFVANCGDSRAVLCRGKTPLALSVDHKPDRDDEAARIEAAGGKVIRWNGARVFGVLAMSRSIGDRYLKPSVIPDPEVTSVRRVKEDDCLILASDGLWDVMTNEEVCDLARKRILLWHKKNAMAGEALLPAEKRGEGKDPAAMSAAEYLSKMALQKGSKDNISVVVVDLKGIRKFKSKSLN
T2 sequence (O49686 1-191): T1 sequence (O49686 1-191)
Description: as §1, §2

His6-PYL3 / biotin-PP2C = target: T3, His6-PYL3 / biotin-PP2C (Arabidopsis thaliana, UniProt Q9SSM7); experiment: AlphaScreen luminescence proximity assay, PYL3-PP2C interaction; conditions: for Stimulation of the interaction between PYL3 and PP2C (binding signal): 100 nM His6-PYL3, 100 nM biotin-PP2C, 100 μM agonist, normalized against a pyrabactin control
T3 construct: made in house; host or cells: not expressly stated for PYL3
T3 sequence (Q9SSM7 1-209): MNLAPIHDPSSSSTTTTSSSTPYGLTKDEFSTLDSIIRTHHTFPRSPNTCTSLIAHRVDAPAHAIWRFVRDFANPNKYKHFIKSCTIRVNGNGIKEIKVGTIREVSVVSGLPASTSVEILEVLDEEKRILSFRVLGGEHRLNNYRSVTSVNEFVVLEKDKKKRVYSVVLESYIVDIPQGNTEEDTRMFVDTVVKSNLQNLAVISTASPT
Description: as §1
(§3) Interactions between PYR/PYL and PP2Cs were assessed by luminescence-proximity AlphaScreen technology (Perkin Elmer). Briefly, biotinylated PP2Cs were attached to streptavidin-coated donor beads, and H6-tagged PYR/PYL receptors were attached to nickel-chelated acceptor beads. The donor and acceptor beads were brought into proximity by the interactions between PYR/PYLs and PP2Cs, which were measured with and without ligands. When excited by a laser beam of 680 nm, the donor beam emits singlet oxygen that activates thioxene derivatives in the acceptor beads, which releases photons of 520-620 nm as the binding signal. The experiments were conducted with 100 nM of PP2Cs and PYR/PYL proteins in the presence of 5 ug/ml donor and acceptor beads in a buffer of 50 mM MOPS, pH7.4, 50 mM NaF, […], and 0.1 mg/ml bovine serum albumin. The results were based on an average of three experiments with standard errors typically less than 10% of the measurements.
Values were determined in different experiments and normalized against a pyrabactin control. Blank spaces mean no experimental data is available. Key (photon counts (binding signal units) in Alphascreen luminescence proximity assay): “+++ is >75,000; ++ is 25,000−75,000; + is <25,000.

His6-PYR1 / biotin-ABI2 = target: T4, His6-PYR1 / biotin-ABI2 (Arabidopsis thaliana, UniProt O49686); experiment: AlphaScreen dose response, PYR1-ABI2 interaction; conditions: 100 nM His6-PYR1, 100 nM biotin-PP2C, 0-100 μM agonist; from dose response curves
T4 construct: made in house; host or cells: E. coli (stated for the PP2Cs; not expressly for PYR1)
T4 sequence (O49686 1-191): T1 sequence (O49686 1-191)
T4 sequence (O04719 101-423 partner limits assumed): T2 sequence (O04719 101-423 limits assumed)
Description: as §3
(§4) The results shown in Table 5b were calculated from the dose response curves of the dependence of the interaction between 100 nM His6-PYR1 and 100 nM biotin-PP2C on the presence of 0-100 μM agonists determined by AlphaScreen luminescence proximity assay. Key (EC50 in μM): ++++=<5.0 μM; +++=5-10 μM; ++=10-20 μM; and +=>20-60 μM.

His6-PYR1 / biotin-HAB1 = target: T5, His6-PYR1 / biotin-HAB1 (Arabidopsis thaliana, UniProt O49686); experiment: AlphaScreen dose response, PYR1-HAB1 interaction; conditions: 100 nM His6-PYR1, 100 nM biotin-PP2C, 0-100 μM agonist; from dose response curves
T5 construct: made in house; host or cells: E. coli (stated for the PP2Cs; not expressly for PYR1)
T5 sequence (O49686 1-191): T1 sequence (O49686 1-191)
T5 sequence (Q9CAJ0 172-511 partner limits assumed): T1 sequence (Q9CAJ0 172-511 limits assumed)
Description: as §3, §4

SMILES | % Phosphatase Activity HAB1 (HAB1) | % Phosphatase Activity ABI2 (ABI2) | Stimulation of the interaction between PYL3 and PP2C (binding signal) (His6-PYL3 / biotin-PP2C) | EC50 (His6-PYR1 / biotin-ABI2) | EC50 (His6-PYR1 / biotin-HAB1) | Promotion of PYL3 interaction with the three PP2Cs (His6-PYL3 / biotin-PP2C; purified proteins in vitro, HAB1, ABI1, ABI2)
O=C1Nc2ccc(S(=O)(=O)NCc3ccccn3)c3cccc1c23 [Compound 1] | 16.6 ± 2.0% | 3.2 ± 0.7% | + (+ is <25,000) | 20 to 60 µM | 20 to 60 µM | 
CCN1C(=O)c2cccc3c(S(=O)(=O)NC[C@@H]4CCCO4)ccc1c23 [Compound 11] | 8.8 ± 0.3% | 4.5 ± 0.5% | ++ (++ is 25,000−75,000) | 20 to 60 µM | 5 to 10 µM | 
O=S(=O)(NCc1ccccn1)c1ccc(Br)c2ccccc12 [Pyrabactin, pyrabactin] | 12.6 ± 0.3% | 1.5 ± 0.8% |  | 5 to 10 µM | < 5 µM | promoted interaction
CCOC(=O)CNS(=O)(=O)c1ccc2c3c(cccc13)C(=O)N2CC [Compound 2] | 6.1 ± 1.9% | 3.8 ± 0.6% | + (+ is <25,000) | 20 to 60 µM | 5 to 10 µM | 

Source: patent US20130045952A1, “ABA Receptor Agonists for Increased Plant Stress Resistance” (Van Andel Research Institute, priority 2011, published 2013)
